According to US12116343B2, “Inhibitors of APOL1 and methods of using same” (Vertex Pharmaceuticals Incorporated, priority 2020, dated 2024):

Biological target: T1, G1 APOL1 (Homo sapiens, UniProt O14791, I384M/S342G)
T1 construct: expressed in transfected cells
T1 sequence (O14791 28-398 S342G/I384M): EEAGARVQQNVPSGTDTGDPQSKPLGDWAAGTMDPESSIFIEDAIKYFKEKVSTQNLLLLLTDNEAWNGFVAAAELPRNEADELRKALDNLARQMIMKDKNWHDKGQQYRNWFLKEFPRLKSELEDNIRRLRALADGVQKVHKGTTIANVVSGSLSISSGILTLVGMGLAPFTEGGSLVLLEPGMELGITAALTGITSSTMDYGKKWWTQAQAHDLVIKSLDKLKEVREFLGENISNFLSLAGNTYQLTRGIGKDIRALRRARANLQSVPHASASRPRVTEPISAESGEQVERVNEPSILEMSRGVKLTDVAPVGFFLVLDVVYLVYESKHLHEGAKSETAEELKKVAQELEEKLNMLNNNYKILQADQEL
Assay: Acute APOL1 Thallium Assay with inducible stable clones of HEK 293 cells
Type: cell-based
Conditions: HEK 293 T-Rex cells expressing G1 APOL1; read-out: Thallium Assay (IC50)
How it was run: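 Tetracycline-inducible HEK293 T-Rex clone G1 DC3.25 expressing G1 APOL1, plated at 26000 cells/well in Opti-MEM with tetracycline induction. APOL1 pore activity read on FLIPR as fluorescence increase from Tl+ influx into cells loaded with a Tl+-sensitive AM-ester dye.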

`O=C([C@H]1C[C@H](c2c(-c3ccc(F)cc3)[nH]c3c(F)cc(F)cc32)C1)N1CC(OCC2CCCO2)C1` (stereo partly drawn) [Compound 136] and `O=C([C@H]1C[C@H](c2c(-c3ccc(F)cc3)[nH]c3c(F)cc(F)cc32)C1)N1CCOC(CO)C1` (stereo partly drawn) [Compound 148] cannot be ordered by IC50: over 1000 nM for the first, over 1000 nM for the second.

Compared with `O=C([C@H]1C[C@H](c2c(-c3ccc(F)cc3)[nH]c3c(F)cc(F)cc32)C1)N1CC2(CC(O)C2)C1` [Compound 137], `O=C([C@H]1C[C@H](c2c(-c3ccc(F)cc3)[nH]c3c(F)cc(F)cc32)C1)N1CCC[C@@H](O)C1` [Compound 149] is lower in IC50: over 1000 nM for the first, 250 to 1000 nM for the second.

`O=C([C@H]1C[C@H](c2c(-c3ccc(F)cc3)[nH]c3c(F)cc(F)cc32)C1)N1CC(O)C(CO)C1` (stereo partly drawn) [Compound 138] and `O=C([C@H]1C[C@H](c2c(-c3ccc(F)cc3)[nH]c3c(F)cc(F)cc32)C1)N1CC[C@H](CO)C1` [Compound 140] cannot be ordered by IC50: over 1000 nM for the first, over 1000 nM for the second.

Compared with `O=C1CC[C@H](NC(=O)[C@H]2C[C@H](c3c(-c4ccc(F)cc4)[nH]c4c(F)cc(F)cc43)C2)C1` [Compound 139], `O=C1CC[C@@H](NC(=O)[C@H]2C[C@H](c3c(-c4ccc(F)cc4)[nH]c4c(F)cc(F)cc43)C2)C1` [Compound 157] is higher in IC50: 250 to 1000 nM for the first, over 1000 nM for the second.

`CC(C)[C@@H](CO)NC(=O)[C@H]1C[C@H](c2c(-c3ccc(F)cc3)[nH]c3c(F)cc(F)cc32)C1` [Compound 141] and `C[C@@H](O)[C@H](CO)NC(=O)[C@H]1C[C@H](c2c(-c3ccc(F)cc3)[nH]c3c(F)cc(F)cc32)C1` [Compound 155] cannot be ordered by IC50: over 1000 nM for the first, over 1000 nM for the second.

First: C[C@H](CO)N(C)C(=O)[C@H]1C[C@H](c2c(-c3ccc(F)cc3)[nH]c3c(F)cc(F)cc32)C1 [Compound 142]
Second: CN(CC(O)CO)C(=O)[C@H]1C[C@H](c2c(-c3ccc(F)cc3)[nH]c3c(F)cc(F)cc32)C1 (stereo partly drawn) [Compound 158]
The IC50 of the first is lower: 250 to 1000 nM for the first, over 1000 nM for the second.

Compared with `O=C(NCC1(O)CCC1)[C@H]1C[C@H](c2c(-c3ccc(F)cc3)[nH]c3c(F)cc(F)cc32)C1` [Compound 143], `CC(O)CNC(=O)[C@H]1C[C@H](c2c(-c3ccc(F)cc3)[nH]c3c(F)cc(F)cc32)C1` (stereo partly drawn) [Compound 167] is lower in IC50: over 1000 nM for the first, 250 to 1000 nM for the second. The second is the more potent here.

`NC(=O)[C@H](CO)NC(=O)[C@H]1C[C@H](c2c(-c3ccc(F)cc3)[nH]c3c(F)cc(F)cc32)C1` [Compound 144] and `C[C@@H](O)[C@@H](CO)NC(=O)[C@H]1C[C@H](c2c(-c3ccc(F)cc3)[nH]c3c(F)cc(F)cc32)C1` [Compound 160] fall in the same range of IC50: 250 to 1000 nM for the first, 250 to 1000 nM for the second.

`O=C([C@H]1C[C@H](c2c(-c3ccc(F)cc3)[nH]c3c(F)cc(F)cc32)C1)N1CCCCC1CO` (stereo partly drawn) [Compound 145] and `O=C([C@H]1C[C@H](c2c(-c3ccc(F)cc3)[nH]c3c(F)cc(F)cc32)C1)N1CCCC[C@H]1CO` [Compound 146] cannot be ordered by IC50: over 1000 nM for the first, over 1000 nM for the second.

`O=C([C@H]1C[C@H](c2c(-c3ccc(F)cc3)[nH]c3c(F)cc(F)cc32)C1)N1CCCC(CO)C1` (stereo partly drawn) [Compound 147] and `O=C([C@H]1C[C@H](c2c(-c3ccc(F)cc3)[nH]c3c(F)cc(F)cc32)C1)N1CCCC(O)C1` (stereo partly drawn) [Compound 150] cannot be ordered by IC50: over 1000 nM for the first, over 1000 nM for the second.

First: NC(=O)[C@H]1CCCN1C(=O)[C@H]1C[C@H](c2c(-c3ccc(F)cc3)[nH]c3c(F)cc(F)cc32)C1 [Compound 153]
Second: NC(=O)[C@H]1CCN(C(=O)[C@H]2C[C@H](c3c(-c4ccc(F)cc4)[nH]c4c(F)cc(F)cc43)C2)C1 [Compound 154]
The IC50 of the first is lower: 250 to 1000 nM for the first, over 1000 nM for the second.

`O=C([C@H]1C[C@H](c2c(-c3ccc(F)cc3)[nH]c3c(F)cc(F)cc32)C1)N1CCCC[C@@H]1CCO` [Compound 156] and `O=C([C@H]1C[C@H](c2c(-c3ccc(F)cc3)[nH]c3c(F)cc(F)cc32)C1)N1CCN[C@H](CO)C1` [Compound 161] cannot be ordered by IC50: over 1000 nM for the first, over 1000 nM for the second.

First: O=C1CCC(NC(=O)[C@H]2C[C@H](c3c(-c4ccc(F)cc4)[nH]c4c(F)cc(F)cc43)C2)C1 (stereo partly drawn) [Compound 159]
Second: O=C1NCC[C@@H]1NC(=O)[C@H]1C[C@H](c2c(-c3ccc(F)cc3)[nH]c3c(F)cc(F)cc32)C1 [Compound 162]
The IC50 of the first is higher: over 1000 nM for the first, 250 to 1000 nM for the second. The second is the more potent here.

`O=C(N[C@@H](CO)C(F)(F)F)[C@H]1C[C@H](c2c(-c3ccc(F)cc3)[nH]c3c(F)cc(F)cc32)C1` [Compound 163] and `O=C(N[C@H](CO)C(F)(F)F)[C@H]1C[C@H](c2c(-c3ccc(F)cc3)[nH]c3c(F)cc(F)cc32)C1` [Compound 164] fall in the same range of IC50: 250 to 1000 nM for the first, 250 to 1000 nM for the second.

`O=C1C[C@H](NC(=O)[C@H]2C[C@H](c3c(-c4ccc(F)cc4)[nH]c4c(F)cc(F)cc43)C2)C(=O)N1` [Compound 165] and `O=C1C[C@@H](NC(=O)[C@H]2C[C@H](c3c(-c4ccc(F)cc4)[nH]c4c(F)cc(F)cc43)C2)C(=O)N1` [Compound 166] cannot be ordered by IC50: under 250 nM for the first, under 250 nM for the second.

`O=C(NCc1cocn1)[C@H]1C[C@H](c2c(-c3ccc(F)cc3)[nH]c3c(F)cc(F)cc32)C1` [Compound 168] and `O=C(NCc1cnco1)[C@H]1C[C@H](c2c(-c3ccc(F)cc3)[nH]c3c(F)cc(F)cc32)C1` [Compound 170] fall in the same range of IC50: 250 to 1000 nM for the first, 250 to 1000 nM for the second.

For `NC(=O)[C@H]1C[C@H](c2c(-c3ccc(F)cc3)[nH]c3c(F)cc(F)cc32)C1` [Compound 169], the IC50 was 250 to 1000 nM.
